Results taken from patent publication US7868013B2, “Cycloalkyl substituted pyrimidinediamine compounds and their uses” (Rigel Pharmaceuticals, Inc., priority 2004, dated 2011).
Where two headings read alike, the source gives them in different places.

How the values were obtained:
[1] = tested on: A549 (lung carcinoma); experiment: In vitro antiproliferation assay, A549 cells (TABLE 1 6 point assay; TABLE 2); type: cell-based
Experimental: (§1) Certain compounds were tested against other cell types for their ability to inhibit proliferation in standard antiproliferation assays.

[2] = tested on: H1299 (non-small cell lung carcinoma); experiment: In vitro antiproliferation assay, H1299 cells (TABLE 1 6 point assay; TABLE 2); type: cell-based
Experimental: as §1

[3] = Homo sapiens, A549, A549 cells, 6 point assay, read-out: A549, 6pt (IC50, inhibition of proliferation)
[4] = Homo sapiens, NCI-H1299, H1299 cells, 6 point assay, read-out: H1299, 6pt (IC50, inhibition of proliferation)
[5] = Homo sapiens, A549, 6 point assay, A549 cells, read-out: IC50, A549 cells
[6] = Homo sapiens, NCI-H1299, 6 point assay, H1299 cells, read-out: IC50, H1299 cells

Row | IC50 [1, 3] | IC50 [2, 4] | IC50 [1, 5] | IC50 [2, 6] | Compound | also measured
1 |  |  |  |  | Cc1cc(Nc2ncc(F)c(N[C@H]3[C@@H](C(N)=O)[C@@H]4C=C[C@H]3C4)n2)ccc1OC1CCCN(C)C1 (mixture of isomers) [compound 147, (1R,2R,3S,4S)-N4-(3-Aminocarbonylbicyclo[2.2.1]hept-5-en-2-yl)-5-fluoro-N2-[3-methyl-4-(1-methylpiperidin-3(±)-yloxy)phenyl]-2,4-pyrimidinediamine] | IC50 ([1]; A549 cells, 6 point assay, read-out: A549, 6pt (IC50, inhibition of proliferation)): ≤ 100 nM; IC50 ([2]; H1299 cells, 6 point assay, read-out: H1299, 6pt (IC50, inhibition of proliferation)): ≤ 100 nM
2 | ≤ 100 nM | 100 to 1000 nM |  |  | CNC(=O)C1C2C=CC(C2)C1Nc1nc(Nc2ccc3c(c2)CCN3CCN(C)C)ncc1F (racemic) [compound 177, Racemic-(2-exo,3-exo)-N2-[1-(2-dimethylaminoethyl)-2,3-dihydroindol-5-yl]-5-fluoro-N4-[3-N-methylaminocarbonylbicyclo[2.2.1]hept-5-ene-2-yl]-2,4-pyrimidinediamine] | 
3 |  |  | 1000 to 10000 nM | 1000 to 10000 nM | Cc1ccc(Nc2ncc(F)c(NC3CCCC3C(N)=O)n2)cc1 (stereo not drawn) [compound 212, (cis)-N4-(2-Carboxamidocyclopent-1-yl)-5-fluoro-N2-(4-methylphenyl)-2,4-pyrimidinediamine] | 
4 | ≤ 100 nM | ≤ 100 nM |  |  | Cc1cc(Nc2ncc(F)c(N[C@H]3[C@@H](C(N)=O)[C@@H]4C=C[C@H]3C4)n2)ccc1OCC1CCN(C)CC1 [compound 153, (1R,2R,3S,4S)-N4-(3-Aminocarbonylbicyclo[2.2.1]hept-5-en-2-yl)-5-fluoro-N2-[4-(1-methylpiperidin-4-ylmethyleneoxy)-3-methylphenyl]-2,4-pyrimidinediamine] | 
5 |  |  | ≤ 100 nM | ≤ 100 nM | CCN1CCN(c2ccc(Nc3ncc(F)c(NC4C5C=CC(C5)C4C(N)=O)n3)cc2C)CC1 (racemic) [compound 241, Racemic-(2-exo,3-exo)-N4-(3-aminocarbonylbicyclo[2.2.1]hept-5-en-2-yl)-N2-[4-(4-ethylpiperazin-1-yl)-3-methylphenyl]-5-fluoro-2,4-pyrimidinediamine] | 
6 |  |  | ≤ 100 nM | ≤ 100 nM | CN1CCN(c2ccc(Nc3ncc(F)c(NC4C5C=CC(C5)C4C(N)=O)n3)cc2F)CC1 (racemic) [compound 239, Racemic-(2-exo,3-exo)-N4-(3-aminocarbonylbicyclo[2.2.1]hept-5-en-2-yl)-5-fluoro-N2-[3-fluoro-4-(4-methylpiperazin-1-yl)phenyl]-2,4-pyrimidinediamine] | 
7 |  |  | 1000 to 10000 nM | > 10000 nM | Cc1cc(Nc2ncc(F)c(NC3(C(N)=O)CC=CC3)n2)ccc1N1CCN(C)CC1 [compound 238, N4-(1-Aminocarbonylcyclopent-3-ene-1-yl)-5-fluoro-N2-[3-methyl-4-(4-methylpiperazin-1-yl)phenyl]-2,4-pyrimidinediamine] | 
8 | 1000 to 10000 nM | 1000 to 10000 nM |  |  | CNC(=O)COc1cc(Nc2ncc(F)c(N[C@H]3CCC[C@H]3C(N)=O)n2)ccc1C (racemic) [compound 106, Racemic-cis-N4-(2-aminocarbonylcyclopent-1-yl)-5-fluoro-N2-[4-methyl-3-(N-methylamino)carbonylmethyleneoxyphenyl]-2,4-pyrimidinediamine] | 
9 | 100 to 1000 nM | 100 to 1000 nM |  |  | COC(=O)CN1CCc2ccc(Nc3ncc(F)c(N[C@H]4CCC[C@H]4C(N)=O)n3)cc2C1 (racemic) [compound 132, Racemic-cis-N4-(2-aminocarbonylcyclopent-1-yl)-5-fluoro-N2-[2-(methoxycarbonylmethylene)-1,2,3,4-tetrahydroisoquin-7-yl]-2,4-pyrimidinediamine] | 
10 |  |  | > 10000 nM | > 10000 nM | Cc1cc(Nc2ncc(F)c(NC3(C(=O)NC4CC4)CC=CC3)n2)ccc1N1CCN(C)CC1 [compound 244, N4-(1-Cyclopropylaminocarbonylcyclopent-3-en-1-yl)-5-fluoro-N2-[3-methyl-4-(4-methylpiperazin-1-yl)phenyl]-2,4-pyrimidinediamine] | 
11 | ≤ 100 nM | ≤ 100 nM |  |  | Cc1cc(Nc2ncc(F)c(N[C@H]3[C@@H](C(=O)NC4CCC4)[C@@H]4C=C[C@H]3C4)n2)ccc1N1CCN(C)CC1 [compound 192, (1R,2R,3S,4S)-N4-[3-(N-Cyclobutyl)aminocarbonylbicyclo[2.2.1]hept-5-en-2-yl]-5-fluoro-N2-[3-methyl-4-(4-methylpiperazin-1-yl)phenyl]-2,4-pyrimidinediamine] | 
12 | 1000 to 10000 nM | 1000 to 10000 nM |  |  | CN1CCN(C(=O)c2cc3cc(Nc4ncc(F)c(N[C@H]5CCC[C@H]5C(N)=O)n4)ccc3o2)CC1 (racemic) [compound 130, Racemic-cis-N4-(2-aminocarbonylcyclopent-1-yl)-5-fluoro-N2-[2-(4-methylpiperazin-1-ylcarbonyl)benzofuran-5-yl]-2,4-pyrimidinediamine] | 
13 |  |  | 100 to 1000 nM | 100 to 1000 nM | CNC(=O)c1cc(Nc2ncc(F)c(NC3C4C=CC(C4)C3C(N)=O)n2)ccc1N1CCN(C)CC1 (racemic) [compound 255, Racemic-(2-exo,3-exo)-N4-(3-aminocarbonylbicyclo[2.2.1]hept-5-en-2-yl)-5-fluoro-N2-[3-methylaminocarbonyl-4-(4-methylpiperazin-1-yl)phenyl]-2,4-pyrimidinediamine] | 
14 | ≤ 100 nM | ≤ 100 nM |  |  | Cc1cc(Nc2ncc(F)c(NC3C4C=CC(C4)C3C(=O)NC3CCC3)n2)ccc1N1CCN(C)CC1 (racemic) [compound 165, Racemic-(2-exo,3-exo)-N4-[3-(N-cyclobutyl)aminocarbonylbicyclo[2.2.1]hept-5-en-2-yl]-5-fluoro-N2-[3-methyl-4-(4-methylpiperazin-1-yl)phenyl]-2,4-pyrimidinediamine] | 
15 |  |  | 100 to 1000 nM | 1000 to 10000 nM | CCOC(=O)N1CCN(c2cccc(Nc3ncc(F)c(NC4CCCC4C(N)=O)n3)c2)CC1 (centres unmarked) [compound 201, N4-(2-Carboxamidocyclopentyl)-N2-[3-(4-ethoxycarbonylpiperazino)phenyl]-5-fluoro-2,4-pyrimidinediamine] | 
16 | ≤ 100 nM | ≤ 100 nM |  |  | Cc1cc(Nc2ncc(F)c(NC3C4C=CC(C4)C3C(N)=O)n2)ccc1N1CCN(CCO)CC1 (racemic) [compound 111] | 
17 | 100 to 1000 nM | 100 to 1000 nM |  |  | CN(C)CCn1ccc2ccc(Nc3ncc(F)c(NC4C5C=CC(C5)C4C(N)=O)n3)cc21 (racemic) [compound 163, Racemic-(2-exo,3-exo)-N4-[3-aminocarbonylbicyclo[2.2.1]hept-5-en-2-yl)-N2-[1-(2-dimethylaminoethyl)indol-6-yl]-5-fluoro-2,4-pyrimidinediamine] | 
18 |  |  | > 10000 nM | > 10000 nM | Cc1cc(Nc2ncc(F)c(N[C@H]3CCC[C@@H]3C(N)=O)n2)ccc1N1CCN(C)CC1 [15d, (1S,2S)—N4-(2-Aminocarbonylcyclopent-1-yl)-5-fluoro-N2-[4-(4-methylpiperazin-1-yl)-3-methylphenyl]-2,4-pyrimidinediamine] | 
19 | ≤ 100 nM | ≤ 100 nM |  |  | CN(C)CCn1ccc2cc(Nc3ncc(F)c(NC4C5C=CC(C5)C4C(=O)NC4CC4)n3)ccc21 (racemic) [compound 175, Racemic-(2-exo,3-exo)-N4-[3-cyclopropylaminocarbonylbicyclo[2.2.1]hept-5-en-2-yl)-N2-[1-(2-dimethylaminoethyl)indol-5-yl]-5-fluoro-2,4-pyrimidinediamine] | 
20 |  |  | ≤ 100 nM | ≤ 100 nM | CN1CCN(c2ccc(Nc3ncc(F)c(NC4C5C=CC(C5)C4C(N)=O)n3)cc2CO)CC1 (racemic) [compound 236, Racemic-(2-exo,3-exo)-N4-(3-aminocarbonylbicyclo[2.2.1]hept-5-en-2-yl)-5-fluoro-N2-[3-hydroxymethyl-4-(4-methylpiperazin-1-yl)phenyl]-2,4-pyrimidinediamine] | 
21 |  |  | 1000 to 10000 nM | 100 to 1000 nM | CC(=O)N1CCN(c2cccc(Nc3ncc(F)c(NC4CCCC4C(N)=O)n3)c2)CC1 (centres unmarked) [compound 197, N2-[3-(4-Acetylpiperazino)phenyl]-N4-(2-carboxamidocyclopentyl)-5-fluoro-2,4-pyrimidinediamine] | 
22 | 1000 to 10000 nM | 1000 to 10000 nM |  |  | NC(=O)[C@@H]1[C@H](Nc2nc(Nc3ccc(OC(F)(F)F)c(Cl)c3)ncc2F)[C@H]2C=C[C@@H]1C2 [compound 148, (1R,2R,3S,4S)-N4-(3-Aminocarbonylbicyclo[2.2.1]hept-5-en-2-yl)-N2-(3-chloro-4-trifluoromethoxyphenyl)-5-fluoro-2,4-pyrimidinediamine] | 
23 |  |  | 100 to 1000 nM | 100 to 1000 nM | CC(=O)N1CCN(c2ccc(Nc3ncc(F)c(NC4CCCC4C(N)=O)n3)cc2)CC1 (centres unmarked) [compound 196, N2-[4-(4-Acetylpiperazino)phenyl]-N4-(2-carboxamidocyclopentyl)-5-fluoro-2,4-pyrimidinediamine] | 
24 |  |  | 1000 to 10000 nM | 1000 to 10000 nM | Cc1cc(Nc2ncc(F)c(N[C@H]3CC[C@H](C(N)=O)C3)n2)ccc1N1CCN(C)CC1 [compound 220, (1S,3S)-N4-(3-Aminocarbonylcyclopent-1-yl)-5-fluoro-N2-[3-methyl-4-(4-methylpiperazin-1-yl)phenyl]-2,4-pyrimidinediamine] | 

Row | Compound | IC50 [1, 3] | IC50 [2, 4] | IC50 [1, 5] | IC50 [2, 6] | also measured
25 | Cc1ccc(Nc2ncc(F)c(N[C@H]3CCC[C@H]3C(N)=O)n2)cc1OCC(=O)N1CCN(C)CC1 (racemic) [compound 102, Racemic-cis-N4-(2-aminocarbonylcyclopent-1-yl)-5-fluoro-N2-[4-methyl-3-(4-methylpiperazin-1-yl)carbonylmethyleneoxyphenyl]-2,4-pyrimidinediamine] | 1000 to 10000 nM | 1000 to 10000 nM |  |  | 
